Laboratory results from US8519155B2, “Choline and tromethamine salt of licofelone” (c-a-i-r biosciences GmbH, priority 2008, dated 2013).
Converted amounts (≈) assume the structure as drawn. Where a name gives a salt, the structure may show the parent alone.

Assays:
Format in all cases: physicochemical
[1] = Solubility in 2-pyrrolidone; conditions: 25° C., mixed for 30 min, Licofelone in supernatant by HPLC
Protocol: Approx. 500 mg Licofelone (free acid) or the corresponding salt (examples 1A and 2) were suspended in 1 ml 2-pyrrolidone and mixed for 30 min. The temperature was maintained at 25° C. After centrifugation the concentration of Licofelone in the supernatant was determined by HPLC with UV detection.

[2] = Storage stability at elevated temperatures (sum of known and unknown impurities)
Protocol: The raw materials (a) Licofelone, (b) Licofelone choline salt (example 1A) and (c) Licofelone tromethamine salt (example 2) were stored in open containers at 40, 50, 60 and 70° C. as well as at 40° C. with 75% relative humidity. Samples were analyzed after storage periods of 4 and 8 weeks. A validated method was applied for quantification of the five known impurities as well as of unknown impurities.

[3] = Solubility in Fasted State Simulated Intestinal Fluid (FaSSIF); conditions: after 15 min, HPLC; for solubility in 30 ml FaSSIF, conc.: 30 ml FaSSIF pH 6.5, approx. 50 mg (as free acid); for solubility in 100 ml FaSSIF, conc.: 100 ml FaSSIF pH 6.5, approx. 50 mg (as free acid)
Protocol: FaSSIF was prepared according to the literature (e.g. Marques M, Dissolution Technologies, May 2004). […] The pH value was adjusted to 6.5 using 1 N NaOH. The ready-to-use FaSSIF was prepared by dissolving 3.3 g sodium taurocholate in 500 ml blank FaSSIF. Then, 11.8 ml of a solution of 100 mg/ml lecithin in dichloromethane was added and the thereafter, the solvent dichloromethane was removed under vacuum at 40° C. Thereafter the clear solution was transferred into a graduated 2 l flask and made up to volume with blank FaSSIF.
Solubility studies were performed with Licofelone (free acid), Licofelone tromethamol salt (example 2) and Licofelone choline salt (example 1A). The test articles were placed in a beaker, FaSSIF and a magnetic stirring bar were added and the mixture was stirred using a magnetic stirrer. After 15 min, samples were withdrawn, filtered and the clear filtrate was analyzed by HPLC to determine the concentration of Licofelone.
The dissolution test was performed in 100 ml FaSSIF and 30 ml FaSSIF. The lower volume was selected in order to simulate the physiological ratio between drug and intestinal fluid volume.

[4] = stored at elevated temperatures for several weeks

| Compound | solubility [1] [µg/mL] | stability on storage [2, 4] | solubility in 30 ml FaSSIF, conc. [3] [µg/mL] | solubility in 100 ml FaSSIF, conc. [3] [µg/mL] | stability on storage ([2]; stored at moderately elevated temperatures for several weeks) |
| --- | --- | --- | --- | --- | --- |
| CC1(C)Cc2c(-c3ccccc3)c(-c3ccc(Cl)cc3)c(CC(=O)O)n2C1 [Licofelone (free acid), 6-(4-chlorophenyl)-2,2-dimethyl-7-phenyl-2,3-dihydro-1H-pyrrolizin-5-ylacetic acid, reference compound] | 47000 (≈ 124000 µM) | undergoes degradation | 7 (≈ 18.4 µM) | 7 (≈ 18.4 µM) |  |
| CC1(C)Cc2c(-c3ccccc3)c(-c3ccc(Cl)cc3)c(CC(=O)O)n2C1 [Licofelone choline salt, 6-(4-chlorophenyl)-2,2-dimethyl-7-phenyl-2,3-dihydro-1H-pyrrolizin-5-ylacetic acid choline salt] | 274000 |  | 222 | 228 | more stable than the free acid |
| CC1(C)Cc2c(-c3ccccc3)c(-c3ccc(Cl)cc3)c(CC(=O)O)n2C1 [Licofelone tromethamine salt, 6-(4-chlorophenyl)-2,2-dimethyl-7-phenyl-2,3-dihydro-1H-pyrrolizin-5-ylacetic acid tromethamine salt] | 66000 | more stable than the free acid and the choline salt | 149 | 165 |  |
